Key:
[1] = target: T1, recombinant human dopamine (HEK-hDAT) transporter (Homo sapiens, UniProt Q01959); test: Inhibition of [3H]neurotransmitter uptake, hDAT; assay type: cell-based
T1 construct: expressed in transfected cells; host or cells: HEK cells expressing hDAT (HEK-hDAT)
Procedure: Selected RCQs were tested for inhibition of [^3H]neurotransmitter uptake by the recombinant human serotonin (hSERT), dopamine (HEK-hDAT), and norepinephrine (hNET) transporters by a modification of the method of Eshleman et al. (J. Pharmacol. Exp. Ther., 289(2):877-885, 1999). HEK-hDAT, hSERT, and -hNET expressing cells were grown on tissue culture dishes. After removing the medium and washing the plates with Ca^2+-, Mg^2+-free phosphate buffered saline (PBS), fresh medium was added and the plates were placed in a 25° C. water bath for 5 minutes. Cells were gently lifted from the plates and cell clusters separated by trituration. 50 μL aliquots of the suspended cells were added to assay tubes containing drugs and Krebs-HEPES assay buffer in a final volume of 0.5 mL.
Competition experiments were conducted in triplicate. After a 10 minute preincubation period at 25° C., [^3H]neurotransmitter (20 nM final concentration; [^3H]DA, [^3H]5-HT, or [^3H]NE) were added, and the mixtures incubated for 10 minutes. Reactions were terminated by filtration through Wallac filtermat A filters (presoaked in 0.05% polyethylenimine), using a Tomtec cell harvester. Scintillation fluid was added to each filtered spot, and radioactivity remaining on the filters determined using a Wallac 1205 Betaplate scintillation counter.
Specific uptake was defined as the difference in uptake observed in the absence and presence of 5 μM mazindol (hDAT and hNET) or 5 μM imipramine (hSERT). Inhibition of uptake was determined by non-linear regression using Prism software.

[2] = system: D6 (CQ^S) P. falciparum strain; test: In vitro fluorescence (Sybr Green I) growth inhibition assay, D6 strain; assay type: cell-based; details: Plasmodium falciparum, D6; Table 13; growth inhibition; read-out: IC50 (nM) D6 (CQ^S)
Description: One exemplary method for measuring inhibitory effects of RCQ compound in vitro has been reported by Smilkstein et al. (Antimicrob. Agents Chemother., 48(5):1803-1806, 2004). This method employs fluorescent detection of the level of parasitemia in cultured red blood cells and can be automated for high-throughput screening of antimalarial RCQs. This exemplary method allows the inhibitory agent (such as a RCQ) to be in contact with the parasite for an entire developmental cycle without purine starvation, which is in contrast to the traditional ^3H-hypoxanthine method (Desjardins et al., Antimicrob. Agents Chemother., 16(6):710-718, 1979). Briefly, to perform the Smilkstein et al. method, an initial parasitemia of approximately 0.2% is attained by adding uninfected red blood cells (RBCs) to a stock culture of Plasmodium sp.-infected RBCs. […] After a period of incubation (such as about 72 hours), a sufficient amount (e.g., 100 μL) of a fluorescent DNA binding dye-detergent mixture (e.g., Sybr Green I dye-detergent mixture) to lyse cells and bind to DNA is added to the reactions. Because uninfected RBCs have no DNA, only parasite DNA (in infected RBCs) is available for binding to the fluorescent dye (e.g., Sybr Green I). Samples are then incubated in the dark for a period of time (e.g., one hour), followed by measurement of levels of fluorescence. For Sybr Green I, excitation and emission wavelength are 485 and 530 nm, respectively. Fluorescence readings, which represent the amount of parasite DNA in the sample, can be plotted against the Log [drug] and fit to a curve by nonlinear regression to obtain the IC50 value for the tested compound.
An in vitro fluorescence assay for determining IC50 of antimalarial drugs was performed as previously described by Smilkstein et al. (Antimicrob. Agents Chemother., 48(5):1803-1806, 2004). This relatively low-cost procedure can be automated for high-throughput screening of the antimalarial activities of RCQs described herein. Advantageous, this method also allows the tested agent (e.g, a RCQ) to be in contact with the parasite for an entire developmental cycle without purine starvation (which occurs with the commonly used ^3H-hypoxanthine method; see, e.g., Desjardins et al., Antimicrob. Agents Chemother., 16, (6):[…], 1979).
Briefly, an initial parasitemia of approximately 0.2% was attained by addition of uninfected red blood cells to a stock culture of cells infected with Dd2 (CQ^R) or D6 (CQ^S) P. falciparum strains. A 10 mM RCQ_02 solution (in DMSO) was prepared. RCQ_02 (at a final concentration from 10^−11 to 10^−4 M) and infected red blood cells (at a final concentration of 2% (v/v)) were mixed in 100 μL samples in individual wells of a 96-well plate. Each sample was prepared in triplicate. A triplicate set of reactions containing CQ (instead of RCQ_02) was included as a control. After a 72 hour incubation period, Sybr Green I dye-detergent mixture (100 μL) was added to each reaction. The samples were further incubated for an hour in the dark, and then placed in a 96-well fluorescence plate reader (Gemini-EM, […]) and analyzed with excitation and emission wavelength bands at 485 and 530 nm, respectively. Fluorescence readings were plotted against the Log [drug], and curve fitting performed by nonlinear regression to find the IC50 value.

[3] = Adverse side effects in treated mice of the 4-day suppressive test; assay type: in vivo; details: 64, 32, 16 mg/kg oral gavage once per day for four days; CF-1 mice
Description: A variation of the 4-day suppressive test described by Peters (Ann. Trop. Med. Parasitol., 69(2):155-171, 1975) was used to test the in vivo effectiveness of RCQ_02 as a treatment for Plasmodium sp. infection. Briefly, P. chabaudi parasites (Mackinnon and Read, Philos. Trans. R. Soc. Lond. B Biol. Sci., 359:965-986, 2004) were collected from a donor animal harboring approximately 20% parasitemia. Sixteen (16) male CF-1 mice at 4-5 weeks of age (approximately 20 g) were infected with approximately 10^7 infected red blood cells via 100 μL tail vein injection. The infected mice were randomly sorted into groups of 4 mice each on day 0. One hour after infection, each group of four mice received 64, 32, 16, or 0 mg/kg RCQ_02 via oral gavage once per day for four days. After the treatment course, the animals were weighed and blood collected for the determination of parasite burden via direct microscopic analysis of Giemsa-stained blood smears. Mice treated with 64 mg/kg RCQ_02 were all cleared of parasites to >99% by day 4.

T1 sequence (Q01959 whole entry): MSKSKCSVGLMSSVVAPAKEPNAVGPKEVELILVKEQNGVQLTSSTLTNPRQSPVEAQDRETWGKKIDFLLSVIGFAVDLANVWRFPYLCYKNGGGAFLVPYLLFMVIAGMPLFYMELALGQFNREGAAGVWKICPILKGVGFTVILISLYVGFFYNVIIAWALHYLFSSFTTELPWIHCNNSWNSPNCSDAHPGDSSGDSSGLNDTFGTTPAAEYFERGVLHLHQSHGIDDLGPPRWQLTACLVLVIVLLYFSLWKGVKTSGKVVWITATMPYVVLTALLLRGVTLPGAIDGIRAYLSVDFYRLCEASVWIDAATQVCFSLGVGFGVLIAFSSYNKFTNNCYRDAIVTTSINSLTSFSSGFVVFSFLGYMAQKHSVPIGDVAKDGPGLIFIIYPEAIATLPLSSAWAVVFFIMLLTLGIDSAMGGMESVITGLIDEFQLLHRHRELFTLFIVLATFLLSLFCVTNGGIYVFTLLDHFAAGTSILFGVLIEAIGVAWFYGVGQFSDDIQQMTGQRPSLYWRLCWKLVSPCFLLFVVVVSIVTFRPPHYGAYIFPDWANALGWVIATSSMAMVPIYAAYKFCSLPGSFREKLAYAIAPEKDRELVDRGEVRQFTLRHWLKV

SMILES: CN(CCCNc1ccnc2cc(Cl)ccc12)CCCN1c2ccccc2CCc2ccccc21 [RCQ_02, N′-(7-Chloro-quinolin-4-yl)-N-[3-(10,11-dihydro-dibenzo[b,f]azepin-5-yl)-propyl]-N-methyl-propane-1,3-diamine]
- IC50 [1]: 2200 nM
- IC50 [2]: 2.9 nM
- adverse side effects (weight loss, reduced eating, reduced activity, ruffled ungroomed fur) [3]: none of the treated mice showed any adverse side effects

Reference: US9493420B2, “Quinoline derivatives and uses thereof” (Portland State University, priority 2005, dated 2016)
